From patent US10639345B2, “Compositions for preserving photoreceptor cells, retinal pigment epithelial cells, or visual function” (Massachusetts Eye and Ear Infirmary, priority 2010, dated 2020)
Where a SMILES comes first, the peptide text is derived from it. The star is where a group is joined. Cbz = O=C(OCc1ccccc1)*; CH2F = FC*

Key:
[1] = test system: CD11b-positive macrophage/microglia; assay: CD11b immunohistochemistry after retinal detachment; format: in vivo; details: day three after retinal detachment
Description: (§1) Immunohistochemistry (IHC) was performed as previously reported (Murakami Y et al. (2008) AM J PATHOL 173:1326-1338). Rat anti-CD11b antibody (1:50; BD Biosciences, San Diego, Calif.) was used as the primary antibody. The specimens were imaged by confocal microscopy using the Leica HCX APOL40× lens.
Since the release of intracellular content in necrosis results in secondary inflammation, changes in the inflammatory response after retinal detachment were investigated by immunohistochemistry and immunofluorescence with an antibody against CD11b. FIG. 11A-B show IHC for CD11b (FIG. 11A) and quantification of CD11b-positive cells in control retina without retinal detachment and in retina treated with vehicle, Z-VAD or Z-VAD+Nec-1 (n=6 each) (FIG. 11B) at three days after retinal detachment. (*, P<0.05; **, P<0.01; NS, not significant; Scale bar, 50 μm).

AIF = AIF nuclear translocation (AIF/TUNEL double staining) after retinal detachment; format: in vivo; details: three days after retinal detachment
Description: as §1, with “Rabbit anti-AIF” for “Rat anti-CD11b”, “(1:100; Cell Signaling Technology, Danvers, Mass.)” for “(1:50; BD Biosciences, San Diego, Calif.)”
Immunofluorescence was performed as previously reported (Hisatomi et al. (2008) J CLIN INVEST 118:2025-2038. The enucleated eyes were frozen in OCT compound (Sakura Finetechnical Co., Tokyo, Japan). Five μm-thick sections were cut, air dried and fixed in cold acetone for 10 minutes. Rabbit anti-AIF antibody (1:100; Cell Signaling Technology, Danvers, Mass.) was used as the primary antibody and incubated at 4° C. overnight. A non-immune serum was used as a negative control. Alexa Fluor 488-conjugated goat anti-rabbit IgG was used as the secondary antibody and incubated at room temperature for one hour. The specimens were imaged by confocal microscopy using the Leica HCX APOL40× lens.
Apoptosis-inducing factor (AIF) is a caspase-independent inducer of cell death, which is released from the mitochondria and translocates into the nuclei during cell death (Susin S A et al. (1999) NATURE 397:441-446). […]

photoreceptors [2] = assay: TEM quantification of apoptotic and necrotic photoreceptor death after retinal detachment; format: in vivo; details: day three after retinal detachment, ONL
Description: The morphology of photoreceptors after retinal detachment was examined by transmission electron microscopy (TEM) and propidium iodide (PI) staining and the effect of treatment with Z-VAD and/or a Nec-1 compound of Formula I-C was analyzed.
TEM was performed as previously described (Hisatomi T et al. (2008). J. CLIN. INVEST. 118:2025-2038). […] Over 200 photoreceptors each eye were photographed and subjected to quantification of cell death modes in a masked fashion. Photoreceptors showing cellular shrinkage and nuclear condensation were defined as apoptotic cells, while photoreceptors associated with cellular and organelle swelling and discontinuities in nuclear and plasma membrane were defined as necrotic cells. The presence of electron-dense granular materials were reported to occur subsequent to both apoptotic and necrotic cell death and cells with these findings were labeled simply as end-stage cell death/unclassified (Hisatomi T et al. (2003) AM. J. PATHOL. 162:1869-1879; Erickson P A et al. (1983) INVEST. OPHTHALMOL. VIS. SCI. 24:927-942).
On day three after retinal detachment, photoreceptor death caused by apoptosis was almost twice that caused by necrosis in vehicle-treated retina (% apoptotic cells: 21.7±1.3%, necrotic cells: 13.3±1.0%, unclassified: 4.4±1.4%; FIGS. 7A and 7E).

photoreceptors [3] = assay: Poly I:C-induced dry AMD model, ONL thickness; format: in vivo, mice
Source text: In this example, the mechanism of photoreceptor cell death in dry AMD was investigated using a polyinosinic:polycytidylic acid (Poly I:C)-induced dry AMD model (Yang et al. (2009) NEJM 359(14):1456-63). Poly I:C is a synthetic double-stranded RNA (dsRNA) analog that activates toll-like receptor 3 (TLR3) signaling (FIG. 20A). Furthermore, dsRNA are known to exist in the drusen of human AMD patients. As depicted in FIG. 20A, activation of the TLR3 signaling results in activation of RIP-1 kinase pathway. […] In the experiments described herein, 2-3 μl of Poly I:C (1 mg/ml) was injected into the subretinal space of the eye (e.g., approximately 2-3 μg of Poly I:C was administered to the eye) to induce AMD.
The thickness of the outer nuclear layer (ONL) was also determined in WT or RIP-3−/− mice at 14 days following treatment with poly I:C. Sections were randomly selected from either WT or RIP-3−/− mice following poly I:C treatment and the retina was photographed. The ONL thickness was measured in each section by masked observers.
To determine the effect of Nec-1 and a pan-caspase inhibitor in the treatment of AMD, TUNEL assay was performed to assess photoreceptor cell death in the poly I:C induced AMD model. […] The thickness of ONL was also measured.

photoreceptors [4] = assay: In vivo PI labeling of photoreceptors after retinal detachment in RIP-3−/− retinas; design: species or system RIP-3−/− mice; details: day 3 after retinal detachment
Description: In vivo propidium iodide (PI) staining was performed by injecting 5 μl of PI (50 μg/ml) into the subretinal space three days after retinal detachment. After two hours, the eyes were enucleated and 10 μm thick cryosections were cut, air-dried, and fixed in 100% ethanol. DAPI was used to counterstain the nuclei. The center of the detached retina was photographed by fluorescence microscope, and the number of PI-positive cells in ONL was analyzed by ImageJ software.
FIG. 8C-D show PI staining (FIG. 8C) and quantification of PI-positive photoreceptors (FIG. 8D) on day 3 after retinal detachment in retina treated with vehicle, Z-VAD or Nec-1 (a Nec-1 of Formula I-C) and Z-VAD in RIP-3−/− retina (n=5-6; C and D). *, P<0.05; **, P<0.01. Scale bar, 100 μm.

photoreceptors [5] = assay: TUNEL-positive photoreceptors in ONL after experimental retinal detachment; format: in vivo, rat; details: day three after retinal detachment; subretinal Z-VAD 300 μM and/or Nec-1 400 μM at detachment

Structure (SMILES): COC(=O)CC(NC(=O)C(C)NC(=O)C(NC(=O)OCc1ccccc1)C(C)C)C(=O)CF (stereo not drawn) [Z-VAD, Benzyloxycarbonyl-Val-Ala-Asp(OMe)-fluoromethylketone] (Cbz-Val-Ala-Asp(OMe)-CH2F; configuration not given here)
- infiltration of CD11b-positive cells in the retina [1]: 514.7±54.5 cells/mm^2
- AIF/TUNEL-double positive cells (AIF nuclear translocation) (AIF): 1021.9±233.9 cells/mm^2
- % apoptotic cells (TEM) (photoreceptors [2]): 11.4±1.2%
- % necrotic cells (TEM) (photoreceptors [2]): 21.9±2.3%
- % unclassified (end-stage cell death, TEM) (photoreceptors [2]): 5.6±1.4%
- ONL thickness (photoreceptors [3]): minimal effect
- number of photoreceptors with disrupted plasma membrane (in vivo PI-labeling) (photoreceptors [4]): not increased
- number of TUNEL-positive cells in the ONL (photoreceptors [5]): 1134.7±297.5 cells/mm^2
